The text below walks through data of patent publication US11000512B2, “Use of DDX3 inhibitors as antiproliferative agents” (AZIENDA OSPEDALIERA UNIVERSITARIA SENESE, priority 2016, dated 2021).

The nature of one series: Water Solubility Assay. It is filed as physicochemical. The following applies: for LogS: from aqueous solubility; for Aq. Solub.: water, room temperature, 24-36 h. The procedure:
Water Solubility Assay. Each solid compound (1 mg) was added to 1 mL of water. The samples were shaked in a shaker bath at room temperature for 24-36 h. The suspensions were filtered through a 0.45 μm nylon filter (Acrodisc), and the solubilized compound determined by LC-MS-MS assay. For each compound the determination was performed in triplicate.
For the quantification was used an LC-MS system consisted of a Varian apparatus (Varian Inc) including a vacuum solvent degassing unit, two pumps (212-LC), a Triple Quadrupole MSD (Mod. 320-LC) mass spectrometer with ES interface and Varian MS Workstation System Control Vers. 6.9 software. Chromatographic separation was obtained using a Pursuit C18 column (50×2.0 mm) (Varian) with 3 μm particle size and gradient elution: eluent A being ACN and eluent B consisting of water. […] The flow rate was 0.2 mL min^−1 and injection volume was 5 μL. The instrument operated in positive mode and parameters were: detector 1850 V, drying gas pressure 25.0 psi, desolvation temperature 300.0° C., nebulizing gas 40.0 psi, needle 5000 V and shield 600 V. Nitrogen was used as nebulizer gas and drying gas. Collision induced dissociation was performed using Argon as the collision gas at a pressure of 1.8 mTorr in the collision cell. Microsomal Stability Assay. […] The reaction was stopped by cooling on ice and adding 1.0 mL of acetonitrile. The reaction mixtures were then centrifuged, and the parent drug and metabolites were subsequently determined by LC-UV-MS. Chromatographic analysis was performed with an Agilent 1100 LC/MSD VL system (G1946C) (Agilent Technologies, Palo Alto, Calif.) constituted by a vacuum solvent degassing unit, a binary high-pressure gradient pump, an 1100 series UV detector, and an 1100 MSD model VL benchtop mass spectrometer.

Series [1] can be described thus: Parallel Artificial Membrane Permeability Assay (PAMPA), GI. Format: in vitro ADME. The following applies: GI (intestinal) PAMPA, value in brackets. The procedure: Parallel Artificial Membrane Permeability Assay (PAMPA). Donor solution (0.5 mM) was prepared by diluting 1 mM dimethylsulfoxide (DMSO) compound stock solution using phosphate buffer (pH 7.4, 0.025 M). Filters were coated with 5 μL of a 1% (w/v) dodecane solution of phosphatidylcholine prepared from CHCl3 solution 10% w/v, for intestinal permeability. Donor solution (150 μL) was added to each well of the filter plate. To each well of the acceptor plate were added 300 μL of solution (50% DMSO in phosphate buffer). All compounds were tested in three different plates on different days. The sandwich was incubated for 5 h at room temperature under gentle shaking. After the incubation time, the plates were separated, and samples were taken from both receiver and donor sides and analyzed using LC with UV detection at 280 nm.
LC analysis were performed with a Varian Prostar HPLC system (Varian Analytical Instruments, USA) equipped with a binary pump with a manual injection valve and model Prostar 325 UV-VIS Detector. Chromatographic separations were conducted using a Polaris C18-A column (150-4.6 mm, 5 μm particle size) at a flow rate of 0.8 mL min^−1 with a mobile phase composed of 60% ACN/40% H2O.
Permeability (Papp) for PAMPA was calculated according to the following equation, obtained from Wohnsland and Faller and Sugano et al. equation with some modification in order to obtain permeability values in cm s^−1,
where VA is the volume in the acceptor well, VD is the volume in the donor well (cm^3), A is the “effective area” of the membrane (cm^2), t is the incubation time (s) and r the ratio between drug concentration in the acceptor and equilibrium concentration of the drug in the total volume (VD+VA). Drug concentration is estimated by using the peak area integration.
Membrane retentions (%) were calculated according to the following equation: […]
where r is the ratio between drug concentration in the acceptor and equilibrium concentration, D, A, and Eq represented drug concentration in the donor, acceptor and equilibrium solution, respectively.

Series [2] concerns the target T1, Human recombinant DDX3 (DDX3 wt helicase) (Homo sapiens, UniProt O00571).
T1 construct: made in house
The series can be described thus: Helicase assay (anti-enzymatic activity against the DDX3 helicase). It is filed as biochemical. The note with it: for activity compared with compound EI01D: DDX3 helicase inhibition relative to EI01D. Here is the method: The helicase activity of DDX3 wt was monitored by measuring the conversion of a double stranded (ds) RNA (labelled at the 5′-end of one strand with a 6-FAM fluorescent) into single stranded (ss) nucleic acid. A final concentration of 25 nM RNA substrate was used in the experiments, unless otherwise stated. Reactions were performed in 50 mM TrisHCl pH 7.5, 1 mM DTT, 0.2 mg/ml BSA, 5% glycerol and 100 μM ATP, 10 mM MgCl2 at 37° C. degrees for 10′ and stopped by adding EDTA 50 mM pH 8. Products were separated through non-denaturating 8% PAGE at 5 W for 4 hours in TBE buffer at 4° C. Substrates and products were quantified by laser scanning densitometry (Thyphoon-TRIO, GE Healthcare).
Human recombinant DDX3 was cloned, expressed and purified as described (Franca et al. Proteins 2007, 67, 1128-37).

Series [3] has as its system Human breast adenocarcinoma cell line (MDA-MB-231). The series can be described thus: Cytotoxicity test / growth inhibition, MDA-MB-231. The following applies: MDA-MB-231, 48 hours, cell counting. Format: cell-based. Here is the method:
(§1) Cells were purchased from American Type Culture Collection (ATCC, Manassas, Va., USA). The LNCaP (ATCC® CRL-1740™), A549 (ATCC® CCL-185™), MDA-MB-231 (ATCC® CRM-HTB-26™), 22Rv1 (ATCC® CRL-2505™), HCT-116 (ATCC® CCL-247™) and PC3 (ATCC® CRL-1435™) cells were maintained in Roswell Park Memorial Institute 1640 medium (RPMI; Euroclone, ECB9006L) supplemented with 10% fetal bovine serum (Euroclone; ECS0180L), 2 mM L-glutamine, 100 units/mL penicillin and […] streptomycin at 37° C. in an atmosphere of 5% CO2/air. DU145 (ATCC® HTB-81™), and DAOY (ATCC® HTB-186™) cells were maintained in Eagle's minimal essential medium (EMEM; Euro-clone, ECM0445L) supplemented with 10% fetal bovine serum (Euroclone; ECS0180L), 2 mM L-glutamine, 100 units/ml penicillin and […] streptomycin at 37° C. in an atmosphere of 5% CO2/air. SH-SY5Y (ATCC® CRL-2266™), DBRTG (ATCC® CRL-2020™), HeLa (ATCC® CCL-2™), HN6 cells (kindly provided by Dr Silvio Gutkind, UCSD Medical Center, Moores Cancer Center USA, Chen J. J et al, Oncotarget 2013, 4, 206-217)), U2OS (ATCC® HTB-96™), RD18 cells (kindly provided by Dr P. Boccuni Memorial Sloan-Kettering Cancer Center, New York, USA Vella S. et al. Clin Epigenetics. 2015 6; 7-82), cells were maintained in Dulbecco's modified Eagle's medium (DMEM; Euroclone, ECB7501L) supplemented with 10% fetal bovine serum (Euroclone; ECS0180L), 2 mM L-glutamine, 100 units/ml penicillin and […] streptomycin at 37° C. in an atmosphere of 5% CO2/air.
(§2) Cell lines were seeded at appropriate densities in 2 mL growth medium in 6-wells culture plates 24 hours before the treatment with the inhibitor compounds. After 24 h the culture medium was removed and fresh medium containing increasing concentrations of chemical compounds was added to cells. The fixed final concentrations were: 0.1 μM, 1 μM, 10 μM, 100 μM. DMSO was the vehicle used for dilution of the compounds and its final concentration on cells was less than 0.2%. Medium-only containing wells were included as controls. Cells were incubated 48 hours with drugs and, then, cell viability was evaluated.
(§3) Cells were detached from each well of the 6-wells plates with 300 μL of Trypsin and suspended in culture medium to a final volume of 1 mL. Cell viability was then assessed through cell counting. Cells were diluted in 1:50 ratio of an isotonic buffered diluent, Isoton (Backman Coulter), following the manufacturer's instructions, and counted using an automated cell counter (Z2 series Coulter Counter, Beckman Coulter). Each cell count was performed in three replicates. The values corresponding to the relative survival of cells in presence of each chemical compound at single concentrations were normalized to the untreated controls. Then, the half maximal inhibitory concentration (IC50) value, which represent the drug concentration that is required to induce a 50% growth inhibition in vitro, was calculated with GraphPad Prism 6.0 software using the best fitting sigmoid curve.

The subject of series [4] is Human head and neck squamous carcinoma cell line (HN6). The series can be described thus: Cytotoxicity test / growth inhibition, HN6. The note with it: HN6, 48 hours, cell counting. Format: cell-based. Here is the method:
as §1, §2, §3

For series [5], the system named is Human adenocarcinomic alveolar basal epithelial cell line (A549). The series can be described thus: Cytotoxicity test / growth inhibition, A549. It is filed as cell-based. The note with it: A549, 48 hours, cell counting. The procedure:
as §1, §2, §3

For series [6], the system named is Human osteosarcoma cell line (U2OS). As to the kind of experiment: Cytotoxicity test / growth inhibition, U2OS. It is filed as cell-based. The note with it: 48 hours, cell counting. The procedure: as §1, §2, §3

Structures are written as SMILES.

T1 sequence (O00571 whole entry): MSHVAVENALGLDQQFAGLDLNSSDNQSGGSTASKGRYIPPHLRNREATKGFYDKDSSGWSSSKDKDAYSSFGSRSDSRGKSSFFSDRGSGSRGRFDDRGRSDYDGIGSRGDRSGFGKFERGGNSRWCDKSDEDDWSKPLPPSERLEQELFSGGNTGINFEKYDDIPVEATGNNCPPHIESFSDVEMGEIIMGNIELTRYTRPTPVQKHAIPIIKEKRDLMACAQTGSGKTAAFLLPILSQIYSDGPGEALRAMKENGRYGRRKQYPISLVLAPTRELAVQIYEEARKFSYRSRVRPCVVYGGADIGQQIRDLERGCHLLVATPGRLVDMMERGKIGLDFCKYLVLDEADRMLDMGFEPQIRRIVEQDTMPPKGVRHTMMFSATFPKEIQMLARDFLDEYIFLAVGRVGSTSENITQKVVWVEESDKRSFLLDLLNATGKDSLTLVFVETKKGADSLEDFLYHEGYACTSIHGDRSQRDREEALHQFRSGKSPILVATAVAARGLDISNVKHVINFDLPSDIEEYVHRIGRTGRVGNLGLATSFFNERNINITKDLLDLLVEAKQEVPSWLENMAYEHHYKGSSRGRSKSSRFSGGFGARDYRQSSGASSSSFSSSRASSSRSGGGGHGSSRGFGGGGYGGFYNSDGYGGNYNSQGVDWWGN

`Cc1ccccc1NC(=O)Nc1ccc(-n2cc(CCC(C)C)nn2)cc1` [Compound 20b, 1-(4-(4-isopentyl-1H-1,2,3-triazol-1-yl)phenyl)-3-o-tolylurea]: in “Water Solubility Assay”, the LogS was less than −8.6 and the “Aq. Solub.” value is less than 0.001 µg/mL. In addition, the “PAMPA GI (RM %) membrane retention” value in series [1] was found to be 26.7%.
Consider `COCCc1cn(-c2ccc(NC(=O)Nc3ccccc3C)cc2)nn1` [Compound 20f, 1-(4-(4-(2-methoxyethyl)-1H-1,2,3-triazol-1-yl)phenyl)-3-o-tolylurea], for which the “PAMPA GI (RM %) membrane retention” value in series [1] worked out at 7.4%.
Turning to `Cc1c(Cl)cccc1NC(=O)Nc1ccc(-n2cc(CCC(C)C)nn2)cc1` [Compound 21b, 1-(3-chloro-2-methylphenyl)-3-(4-(4-isopentyl-1H-1,2,3-triazol-1-yl)phenyl)urea], in the series “Water Solubility Assay”, the LogS is less than −8.6 and the “Aq. Solub.” value is less than 0.001 µg/mL. In series [1], the “PAMPA GI (RM %) membrane retention” value worked out at 59.1%.
For `CC(C)CCc1cn(-c2ccc(NC(=O)Nc3ccccc3C(F)(F)F)cc2)nn1` [Compound 22b, 1-(4-(4-isopentyl-1H-1,2,3-triazol-1-yl)phenyl)-3-(2-(trifluoromethyl)phenyl)urea], the “activity compared with compound EI01D” value in series [2] was “approximately ten-fold more active”. In the series “Water Solubility Assay”, this compound gave a LogS of less than −8.6. The “PAMPA GI (RM %) membrane retention” value in series [1] is 24.8%. For the same compound, in series [3], the IC50 amounted to 13.1 µM.
With `CCCC(C)C(F)c1cn(-c2ccc(NC(=O)Nc3ccccc3C(F)(F)F)cc2)nn1` (stereo not shown) [Compound 42c, 1-(4-(4-(1-fluoro-2-methylpentyl)-1H-1,2,3-triazol-1-yl)phenyl)-3-(2-(trifluoromethyl)phenyl) urea], the IC50 in series [4] came out at 6.32 µM; in series [5] it was 57.2 µM; in series [6], 22.5 µM; in series [3] it was 33.6 µM.
Compound `CCOCn1nnc(-c2ccc(NC(=O)Nc3ccccc3C)cc2)n1` [Compound 50, 1-(4-(2-(ethoxymethyl)-2H-tetrazol-5-yl)phenyl)-3-(o-tolyl)urea] came in with an IC50 in series [3] of 23.5 µM.
Turning to `CCCCn1nnc(-c2ccc(NC(=O)Nc3ccccc3C(F)(F)F)cc2)n1` [Compound 51, 1-(4-(2-butyl-2H-tetrazol-5-yl)phenyl)-3-(2-(trifluoromethyl)phenyl)urea], the results for the IC50 in series [4] and in series [6] were 16.4 µM and 51.5 µM, respectively.
Take `CC(C)CCc1cn(-c2ccc(NC(=O)Nc3ccccc3F)cc2)nn1` [Compound 55a, 1-(2-fluorophenyl)-3-(4-(4-isopentyl-1H-1,2,3-triazol-1-yl)phenyl)urea]: in series [2], the “activity compared with compound EI01D” value is reported as “approximately ten-fold more active”.
In the case of `CC(C)CCc1cn(-c2ccc(NC(=O)Nc3cccc(F)c3)cc2)nn1` [Compound 55b, 1-(3-fluorophenyl)-3-(4-(4-isopentyl-1H-1,2,3-triazol-1-yl)phenyl)urea], in series [2], the “activity compared with compound EI01D” value is reported as “approximately ten-fold more active”.
On to `CC(C)CCc1cn(-c2ccc(NC(=O)Nc3ccccc3C(F)(F)F)cn2)nn1` [Compound 86, 1-(6-(4-isopentyl-1H-1,2,3-triazol-1-yl)pyridin-3-yl)-3-(2-(trifluoromethyl)phenyl)urea], for which the IC50 in series [2] (DDX3 helicase activity, dsRNA unwinding, n.a = Compound not active, read-out: ID50 (the source's name)) amounted to 51 µM.
`CCCCc1nnc(-c2ccc(NC(=O)Nc3ccccc3C(F)(F)F)cc2)s1` [Compound 124, 1-(4-(5-butyl-1,3,4-thiadiazol-2-yl)phenyl)-3-(2-(trifluoromethyl)phenyl)urea] displayed an IC50 in series [6] of 60.1 µM.
